Experimental data taken from patent US20160175316A1, “METHOD OF PREVENTING OR TREATING ORGAN, HEMATOPOIETIC STEM CELL OR BONE MARROW TRANSPLANT REJECTION” (AbbVie Inc., priority 2006, published 2016).
“Also recorded” adds a separate entry of the source.

Tests used:
activated T cells = assay: Mouse mixed lymphocyte model, 3H-Thymidine incorporation; type: cell-based; details: Balb/c and C57BL/6 splenocytes co-cultured for 2 days, 6 hour pulse with 3H-Thy
Description: Inhibition of ^3H-Thymidine incorporation by EXAMPLE A. 5×10^5 Balb/c and C57BL/6 splenocytes were co-cultured for 2 days with EXAMPLE A, its enantiomer or vehicle control before a 6 hour pulse with ^3H-Thy.

activated murine B cells = assay: LPS-stimulated B cell proliferation, 3H-Thy pulse; type: cell-based, mouse; details: B6 B cells, in vitro stimulation with low doses of LPS, 6 hour pulse
Description: Untouched B cells from B6 mouse splenocytes were isolated by MACS separation. 2×10^5B cells were cultured with EXAMPLE A, its enantiomer or vehicle control and […] of lipopolysaccharide (LPS) before a 6 hour pulse with ^3H-Thy. Control vs EXAMPLE A (P<0.05 1-way ANOVA using Dunnett's post-hoc). One representative experiment (n=2) is shown.

naïve and memory T cells = assay: In vivo depletion of naïve and memory T cells in spleen and lymph nodes (flow cytometry); parameters: species or system C57BL/6 mice
Description: To determine if T cell sensitivity to ABT-737 treatment was predicated on the maturation or differentiation state of a T cell, C57BL/6 mice were treated for 14 consecutive days with either ABT-737 (75 mg/kg) or vehicle control. Spleen and lymph nodes were recovered and the numbers of […]), central memory ([…] effector memory (CD62LloCD44hi) cells determined by flow cytometry.

[1] = test system: cytotoxic T lymphocytes (CTL); assay: In vivo CTL response after OVA priming; parameters: species or system C57BL/6 mice; details: 75 mg/kg daily for a week, OVA priming on day 6, assay seven days after priming
Description: Having established the impact of ABT-737 on the steady state immune system, its effects on the development of specific immune responses were next examined. C57BL/6 mice were treated daily for a week with either ABT-737 (75 mg/kg) or vehicle control and on treatment day 6, mice were primed with ovalbumin (OVA) antigen in the form of irradiated OVA-coated H-2Kb+ splenocytes (OCS), a protocol known to induce cytotoxic T lymphocytes (CTL). Seven days after T-cell priming, in vivo CTL responses were assayed by measuring the persistence in spleen and lymph nodes of OVA peptide pulsed target cells, CFSE labeled and injected intravenously.

[2] = test system: NP-specific B cell subsets (germinal center, memory and plasma cells); assay: In vivo B cell response to NP-KLH immunization; parameters: species or system mice; details: for memory B cell compartment, established memory: treatment started at day 40 after immunization, 14 days, analyzed day 54; for frequency of ASC in the spleen or the bone marrow, established plasma cells: treatment starting day 40 after immunization
Description: Mice were immunized with NP-KLH in alum by intraperitoneal injection and then treated with ABT-737 (75 mg/kg) or vehicle control for 14 consecutive days, starting 5 days after immunization. On day 19 after immunization, the numbers of NP-specific B cell subsets (germinal center (GC), memory and plasma cells) were quantified. As depicted in FIG. 5A, FIG. 5B, FIG. 5C, FIG. 5D, FIG. 5E, and FIG. 5F, antigen-specific B cells were detected by flow cytometry on the basis of surface staining for B220, NP and IgG1. […] To determine if memory cells were sensitive during formation or maintenance, mice were immunized and memory was allowed to form before ABT-737 treatment started at day 40 after immunization. The mice were analyzed after 14 days of treatment with ABT-737 or vehicle, i.e., day 54 after immunization. […] Antibody secreting cells (ASC) are also generated during the B cell response to antigen, secreting antibodies specific for the antigen. In the later stages of T cell dependent immune responses, ASC originate in the GC, then migrate to the bone marrow where they compete for access to survival niches in order to become long-lived plasma cells.

[3] = test system: islet allografts in spontaneously diabetic (RIP-Kb/CBA; H-2k) mice; assay: Allogenic islet graft rejection in diabetic mice; type: in vivo, mouse; details: 50 mg/kg intra-peritoneal daily, 14 days; for islet allograft survival versus vehicle treated recipients: graft on day 6
Description: Non-immune diabetic mice were treated daily for 14 consecutive days with either ABT-737 (50 mg/kg) or vehicle control. On treatment day 6, mice received an allogenic grant of F1(B6×SJL) islets transplanted under the kidney capsule. Blood glucose was measured at various times post-transplantation. Grafts were deemed successful if normal blood glucose (<15 mmol/L) levels were achieved within 4 days post-transplantation.
Viable islets were handpicked under dissecting microscope, pooled and cultured overnight at a density of 200-300 islets/3.5 cm Petri dish in 1.1 ml DME supplemented with 10% FCS at 37° C.; 10% CO2. The following day viable islets were handpicked into aliquots of 400 (of an equivalent size distribution) before grafting into recipient mice.
Spontaneously diabetic (RIP-Kb/CBA; H-2^k) (Sutherland, R. M., Mountford, J. N., Allison, J., Harrison, L. C., & Lew, A. M., The non-immune RIP-Kb mouse is a useful host for islet transplantation, as the diabetes is spontaneous, mild and predictable. Int J Exp Diabetes Res, 2002, 3:37-45) male mice were treated daily for five consecutive days either with ABT-737 (50 mg/kg) or vehicle control via intra-peritoneal injection as described by Mason, K. D., Carpinelli, M. R., Fletcher, J. I., Collinge, J. E., Hilton, A. A., Ellis, S., Kelly, P. N., Ekert, P. G., Metcalf, D., Roberts, A. W., et al. Programmed anulear cell death delimits platelet life span. Cell (2007) 128:1173-1186. On day 6, mice received an allograft under the left kidney capsule consisting of 400 purified mouse pancreatic islets isolated from male and female donors [(C57Bl/6×SJL) F1; H-2^b,s]. Treatment was then continued daily for 8 days post transplantation. Graft function was monitored by diabetes reversal, determined by measuring blood glucose via tail vein bleed.

human pancreatic islets = assay: Predicted toxicity to pancreatic islets from Bcl-2 family expression profile; details: predicted from expression profile of Bcl-2 family proteins such as Mcl-1
[4] = 75 mg/kg for 14 days starting 5 days after immunization, day 19
[5] = treatment starting on day 5 of the response

CN(C)CC[C@H](CSc1ccccc1)Nc1ccc(S(=O)(=O)NC(=O)c2ccc(N3CCN(Cc4ccccc4-c4ccc(Cl)cc4)CC3)cc2)cc1[N+](=O)[O-] [EXAMPLE A, N-(4-(4-((4′-chloro(1,1′-biphenyl)-2-yl)methyl)piperazin-1-yl)benzoyl)-4-(((1R)-3-(dimethylamino)-1-((phenylsulfanyl)methyl)propyl)amino)-3-nitrobenzenesulfonamide]
proliferation of activated T cells (3H-Thymidine incorporation) (activated T cells): inhibits proliferation of activated T cells in a dose dependent manner | proliferation of activated murine B cells (3H-Thy) (activated murine B cells): inhibits proliferation of activated murine B cells | central and effector memory CD4+ and effector CD8+ T cells in spleen (naïve and memory T cells; 75 mg/kg, 14 consecutive days): remain refractory | numbers of naïve and memory T cells (CD4+ and CD8+) in lymph nodes (naïve and memory T cells; 75 mg/kg, 14 consecutive days): significantly reduced | numbers of naïve cells and CD8+ central memory T cells in spleen (naïve and memory T cells; 75 mg/kg, 14 consecutive days): effectively reduced | lymphocyte and dendritic cell sub-populations (naïve and memory T cells; mouse immune system, summary statement): depleted selective lymphocyte and dendritic cell sub-populations | CTL activity [1]: significantly less CTL activity | reduction in specific target lysis compared to vehicle treated controls [1]: approximately 4 fold | GC (CD38lo) B cells [2, 4]: unaffected | memory (CD38hi) B cells [2, 4]: susceptive | overall number of antigen-specific B cells (B220, NP, IgG1) [2, 4]: no significant difference | GC (CD38lo) B cells ([2]; 75 mg/kg for 14 days starting 5 days after immunization, day 19, listed as ABT-737): refractory | memory B cell compartment, established memory [2]: inhibited the persistence of memory B cells | memory B cell compartment, established memory ([2]; listed as ABT-737): still affected | frequency of ASC in the spleen or the bone marrow, established plasma cells [2]: unaffected | frequency of ASC in the spleen or the bone marrow, established plasma cells ([2]; listed as ABT-737): no reduction | frequency of antigen-specific IgG1 ASC in the spleen [2, 5]: significantly reduced | frequency of total and high affinity NP-specific ASC in the bone marrow [2, 5]: marked reduction | islet allograft survival versus vehicle treated recipients [3]: sufficiently immunosuppressive to allow long-term survival of pancreatic allografts | islet allograft survival versus vehicle treated recipients ([3]; listed as ABT-737): functioned significantly longer; also recorded: survived longer | duration of allograft function (all mice, n=5) ([3]; experiment terminated at 100 days): ≥ 100 days post-transplantation | toxicity to human pancreatic islets (human pancreatic islets): low toxicity
